We go through 1 compound from patent US20080241289A1, “PREPARATION AND UTILITY OF NON-NUCLEOSIDE REVERSE TRANSCRIPTASE INHIBITORS” (AUSPEX PHARMACEUTICALS, INC., priority 2007, published 2008).

The subject of the data set is BN Rats. Description: Incidence of skin rash in BN rats, time course study. The data set is classed as in vivo. How it is done: The protocol was modeled after that published previously (Shenton et al, Chem. Res. Toxicol. 2005, 18, 1799-1813, and Popovic et al, Chem. Res. Toxicol. 2006, 19, 1205-1214). After a 1-week acclimation period, the rats (n=3 per group) were either treated with the suspension vehicle (1% Tween® 20), or Nevirapine (NVP) (150 mg/kg/day) in suspension, or compounds of Formula I (dNVP) (150 mg/kg) in suspension. Animals were monitored for development of skin rash, and body weight. At the endpoint of the experiment, rats were humanely euthanized using carbon dioxide and exsanguinations.
At day 18, all animals in all three groups were euthanized as the experiment was deemed to have reached its ethical endpoint where no additional dosing was considered appropriate.

On to `Cc1ccnc2c1NC(=O)c1cccnc1N2C1CC1` [NVP, 11-Cyclopropyl-5,11-dihydro-4-methyl-6H-dipyrido[3,2,-b:2′,3′-e][1,4]-diazepin-2-one], for which, under “150 mg/kg/day in suspension, at approximately the two-week point”, the “other visible signs (ears, eyes, feet, tail)” value is “distinctly red ears, edematous eyes, purple feet, and a mottled tail”. Moreover, the “behaviour / general health after dosing” value (150 mg/kg/day in suspension, over entire course of the experiment (to day 18)) was “inactivity and a lack of responsiveness for about three hours after each dosing”. For the setting “150 mg/kg/day in suspension, under controlled conditions”, the “overall toxicity, NVP compared with compounds of Formula I” value is listed as “substantially more toxic than compounds of Formula I”. Also, under “n=3 per group, 150 mg/kg/day in suspension (1% Tween 20), observed to day 18”, the “development of skin lesions (skin rash)” value is “all NVP-treated animals displayed lesions, particularly around the dorsal area of the neck”.
